Results published in patent publication US7759339B2, “Hydroxysteroid dehydrogenase inhibitors” (Takeda San Diego, Inc., priority 2005, dated 2010).

Target: T1, 11b-HSD1 (Homo sapiens, UniProt P28845)
T1 construct: made in house; host or cells: E. coli DH10b-Tir
Assay: in vitro enzymatic 11b-HSD1 dehydrogenase activity assay
Assay type: biochemical
Conditions: 11b-HSD1 dehydrogenase assay; 10 μM each of cortisol and NADP+, 50 nM enzyme, 60 minutes at room temperature; reference point for this assay
Protocol: Provided below is an in vitro enzymatic 11b-HSD1 dehydrogenase activity assay for activity against 11b-HSD1.
The inhibitory properties of compounds relative to 11b-HSD1 may be determined using a white 384-well-plate format under the following reaction conditions: 50 mM Tris pH 7.5, 150 mM NaCl, 0.1 mM EDTA, 0.01% Brij35, 10 μM each of cortisol and NADP^+, 1% DMSO. Reaction product may be determined quantitatively by fluorescence intensity using a fluorescence plate reader (Molecular Devices Gemini) with a 340 nm excitation wavelength and a 460 nm emission wavelength.
The assay reaction may be initiated as follows: 4 μl buffer containing 25 μM cortisol and 25 μM NADP^+ was added to each well of the plate, followed by the addition of 2 μl of inhibitor (2 fold serial dilutions for 11 data points for each inhibitor) containing 5% DMSO. 4 μl of 125 nM 11b-HSD1 enzyme solution may be added to initiate the reaction (final enzyme concentrations was 50 nM). Fluorescence intensities of the resulting reaction mixtures may be measured after 60 minutes incubation at room temperature.
IC50 values may be calculated by non-linear curve fitting of the compound concentrations and fluorescence intensities to the standard IC50 equation.

T1 sequence (P28845 24-292): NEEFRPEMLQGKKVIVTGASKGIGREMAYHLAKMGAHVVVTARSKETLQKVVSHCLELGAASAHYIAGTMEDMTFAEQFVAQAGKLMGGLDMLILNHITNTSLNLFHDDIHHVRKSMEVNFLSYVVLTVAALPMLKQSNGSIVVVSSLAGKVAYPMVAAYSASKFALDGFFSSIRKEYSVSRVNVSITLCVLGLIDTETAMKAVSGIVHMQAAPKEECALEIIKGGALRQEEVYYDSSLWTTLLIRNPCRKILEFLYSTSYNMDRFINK

CCN(CC)C(=O)Cc1csc(NS(=O)(=O)c2cccc(Cl)c2C)n1 [BVT14225]
IC50: 500 nM
